In brackets after ≈: the same amount, converted by molar mass. One block for each compound: values may come before it. Activity calls are given as the source filed them. The rule behind the calls is not given here.
Key:
[1] = Aqueous solubility of the compound in water at 1 mg exposed to ultrasound for 1 hr measured after 30 mins by UV-spectrophotometric method; format: physicochemical; settings: for solubility at 1 h: water
RAW264.7 [2] = assay: Anti-inflammatory activity in mouse RAW264.7 cells assessed as inhibition of LPS-induced IL-6 production at 20 uM by ELISA; format: functional
RAW264.7 [3] = assay: Anti-inflammatory activity in mouse RAW264.7 cells assessed as inhibition of LPS-induced TNFalpha production at 20 uM by ELISA; format: functional
[4] = target: Transcription factor p65 (Mus musculus) (UniProt Q04207); assay: Inhibition of NF-kB p65 in mouse RAW264.7 cells assessed as reduction in LPS-induced COX2 expression at 0.3 ug/ml preincubated for 12 hrs followed by LPS stimulation for 3 hrs by Western blot method; format: cell-based
Transcription factor p65 (Mus musculus), sequence (Q04207 whole entry): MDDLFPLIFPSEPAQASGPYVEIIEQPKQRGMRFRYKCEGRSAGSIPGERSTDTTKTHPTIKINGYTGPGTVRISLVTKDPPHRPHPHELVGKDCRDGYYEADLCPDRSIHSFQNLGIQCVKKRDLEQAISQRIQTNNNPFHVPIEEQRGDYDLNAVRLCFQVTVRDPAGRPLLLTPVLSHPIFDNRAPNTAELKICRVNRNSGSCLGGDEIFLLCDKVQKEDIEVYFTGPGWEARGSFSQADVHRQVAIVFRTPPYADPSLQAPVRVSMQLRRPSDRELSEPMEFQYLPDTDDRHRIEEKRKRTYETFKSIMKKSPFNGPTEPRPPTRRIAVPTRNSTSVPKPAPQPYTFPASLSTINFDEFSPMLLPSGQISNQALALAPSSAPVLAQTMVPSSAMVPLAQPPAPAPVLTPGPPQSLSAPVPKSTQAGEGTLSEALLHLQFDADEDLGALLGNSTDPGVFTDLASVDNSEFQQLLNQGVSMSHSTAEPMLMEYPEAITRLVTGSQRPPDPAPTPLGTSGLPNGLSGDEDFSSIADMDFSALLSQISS

[5] = target: Transcription factor p65 (Mus musculus) (UniProt Q04207); assay: Inhibition of NF-kB p65 in mouse RAW264.7 cells assessed as reduction in LPS-induced iNOS expression at 0.3 ug/ml preincubated for 12 hrs followed by LPS stimulation for 3 hrs by Western blot method; format: cell-based
[6] = target: Transcription factor p65 (Mus musculus) (UniProt Q04207); assay: Inhibition of LPS-induced NF-kB p65 phosphorylation in mouse RAW264.7 cells at 0.3 ug/ml preincubated for 12 hrs followed by LPS stimulation for 3 hrs by Western blot method; format: cell-based
[7] = target: Transcription factor p65 (Mus musculus) (UniProt Q04207); assay: Inhibition of LPS-induced NF-kB p65 activation in mouse RAW264.7 cells at 0.3 ug/ml preincubated for 12 hrs followed by LPS stimulation for 3 hrs by DAPI staining based inverted fluorescence microscopic method; format: cell-based

Compound: O=C(/C=C/C=C/c1ccccc1)c1ccc(F)cc1F
solubility at 1 h [1]: 7.86 µg/mL (≈ 29.1 µM)

Compound: CN(C)c1ccc(/C=C/C=C/C(=O)c2ccccc2Cl)cc1
solubility at 1 h [1]: 7.55 µg/mL (≈ 24.2 µM)

Compound: COc1ccccc1/C=C/C=C/C(=O)c1cc(OC)c(OC)c(OC)c1
solubility at 1 h [1]: 25.9 µg/mL (≈ 73.1 µM) | inhibition (RAW264.7 [2]): Active | inhibition (RAW264.7 [3]): Active

Compound: COc1cc(/C=C/C(=O)CC(=O)/C=C/c2ccc(O)c(OC)c2)ccc1O [CURCUMIN]
solubility ([1]; 1 h): 12.87 µg/mL (≈ 34.9 µM) | inhibition (RAW264.7 [2]): Active | inhibition (RAW264.7 [3]): Active

Compound: CC(C)c1ccc(C(=O)/C=C/C=C/c2ccccc2)cc1
solubility at 1 h [1]: 6.78 µg/mL (≈ 24.5 µM)

Compound: Cc1ccc(S(=O)(=O)/C=C/C#N)cc1
inhibition [4]: Active | inhibition [5]: Active | inhibition [6]: Active | inhibition [7]: Active

Compound: COc1cc(C(=O)/C=C/C=C/c2ccccc2)cc(OC)c1OC
solubility at 1 h [1]: 20.3 µg/mL (≈ 62.7 µM) | inhibition (RAW264.7 [2]): Active | inhibition (RAW264.7 [3]): Active

Compound: O=C(/C=C/C=C/c1ccccc1)c1ccccc1Cl
solubility at 1 h [1]: 8.2 µg/mL (≈ 30.5 µM)

The next lines start with the values.

solubility at 1 h [1]: 13.2 µg/mL (≈ 47.3 µM)
Compound: O=C(/C=C/C=C/c1ccccc1)c1ccc([N+](=O)[O-])cc1

solubility at 1 h [1]: 13.9 µg/mL (≈ 45.1 µM)
Compound: COc1ccccc1/C=C/C=C/C(=O)c1ccc([N+](=O)[O-])cc1

solubility at 1 h [1]: 9.45 µg/mL (≈ 31.6 µM)
Compound: COc1ccccc1/C=C/C=C/C(=O)c1ccccc1Cl

From ChEMBL document CHEMBL4007478, “Diarylpentadienone derivatives (curcumin analogues): Synthesis and anti-inflammatory activity” (Bioorg Med Chem Lett, 2017)
